Results published in patent US8338422B2, “Indolin-2-ones and aza-indolin-2-ones” (Janssen Pharmaceutica NV, priority 2007, dated 2012).

How the values were obtained:
A2780 = assay: Cellular proliferation assay (Alamar blue), A2780; format: cell-based; conditions: A2780 cells, 72 hours with compound, 10% FCS; for IC50: Homo sapiens, A2780, 72 h, read-out: pIC50 A2780 (converted)
Procedure: (§1) […] functional properties of these compounds was tested in cellular proliferation assays on a panel of different cell lines in the presence of 10% FCS serum (37° C. and 5% (v/v) CO2). In a first step these cells were seeded and incubated for 24 hours in the absence of compound. In the second step the cells were incubated for 72 hours with the compounds to be tested for 72 hours. The viable cell number was finally assessed in a standard Alamar blue cell viability assay.
(§2) The viable cell number was assessed by incubation for either 4 h (HCT-116, H1299, H460) 6 h (SKOV3, HT29, U87-MG, Colo205) or 24 h (A2780, PC3, MDA-MB-231, A549, MCF-7) with Alamar blue (Resazurin 9 μg/ml, K-Ferrocyanide 90 μM K-Ferricyanide 90 μM) and the converted fluorescent product was quantified on a fluorescent plate readed (544 nm/590 nm). Effect of the compounds is calculated as of on control cells.

GSK3β (h) = GSK3β (h) (Homo sapiens, UniProt P49841); assay: GSK-3β human kinase assay (SPA); format: biochemical; conditions: for IC50: read-out: GSK3B pIC50 (converted)
GSK3β (h), sequence (P49841 whole entry): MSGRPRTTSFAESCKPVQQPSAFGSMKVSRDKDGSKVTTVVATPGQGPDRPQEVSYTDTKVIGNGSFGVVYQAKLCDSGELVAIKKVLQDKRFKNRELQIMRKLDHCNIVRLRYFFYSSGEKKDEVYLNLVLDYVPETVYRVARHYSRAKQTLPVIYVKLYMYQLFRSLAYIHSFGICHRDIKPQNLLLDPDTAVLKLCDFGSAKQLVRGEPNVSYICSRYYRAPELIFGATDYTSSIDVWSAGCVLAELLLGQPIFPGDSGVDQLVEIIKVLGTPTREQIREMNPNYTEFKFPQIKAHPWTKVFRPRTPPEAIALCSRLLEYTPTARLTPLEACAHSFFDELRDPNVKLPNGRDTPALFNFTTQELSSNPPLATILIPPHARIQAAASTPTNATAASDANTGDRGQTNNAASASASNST
Procedure, shortened: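 Radiometric SPA read-out: after EDTA stop, biotinylated 33P-labelled peptide bound streptavidin PVT beads and was imaged on Leadseeker. Reaction: 60 min, room temperature, GSK3β (h) at 1 μg/ml, 1 μM substrate peptide, 1 μM ATP with 2 nM [γ-33P]ATP, Tris pH 7.4/MgCl2/DTT buffer.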

HCT-116 = assay: Cellular proliferation assay (Alamar blue), HCT-116; format: cell-based; conditions: HCT-116 cells, 72 hours with compound, 10% FCS; for IC50: Homo sapiens, HCT-116, 72 h, read-out: pIC50 HCT-116 (converted)
Procedure: as §1, §2

H1299 = assay: Cellular proliferation assay (Alamar blue), H1299; format: cell-based; conditions: H1299 cells, 72 hours with compound, 10% FCS; for IC50: Homo sapiens, NCI-H1299, 72 h, read-out: pIC50 H1299 (converted)
Procedure: as §1, §2

MDA/MB231 = assay: Cellular proliferation assay (Alamar blue), MDA/MB231; format: cell-based; conditions: MDA/MB231 cells, 72 hours with compound, 10% FCS; for IC50: Homo sapiens, MDA-MB-231, 72 h, read-out: pIC50 MDA/MB231 (converted)
Procedure: as §1, §2

PLK4 (h) = PLK4 (h) (Homo sapiens, UniProt O00444); assay: PLK-4 human kinase assay (SPA); format: biochemical; conditions: for IC50: read-out: PLK4 pIC50 (converted)
PLK4 (h), sequence (O00444 whole entry): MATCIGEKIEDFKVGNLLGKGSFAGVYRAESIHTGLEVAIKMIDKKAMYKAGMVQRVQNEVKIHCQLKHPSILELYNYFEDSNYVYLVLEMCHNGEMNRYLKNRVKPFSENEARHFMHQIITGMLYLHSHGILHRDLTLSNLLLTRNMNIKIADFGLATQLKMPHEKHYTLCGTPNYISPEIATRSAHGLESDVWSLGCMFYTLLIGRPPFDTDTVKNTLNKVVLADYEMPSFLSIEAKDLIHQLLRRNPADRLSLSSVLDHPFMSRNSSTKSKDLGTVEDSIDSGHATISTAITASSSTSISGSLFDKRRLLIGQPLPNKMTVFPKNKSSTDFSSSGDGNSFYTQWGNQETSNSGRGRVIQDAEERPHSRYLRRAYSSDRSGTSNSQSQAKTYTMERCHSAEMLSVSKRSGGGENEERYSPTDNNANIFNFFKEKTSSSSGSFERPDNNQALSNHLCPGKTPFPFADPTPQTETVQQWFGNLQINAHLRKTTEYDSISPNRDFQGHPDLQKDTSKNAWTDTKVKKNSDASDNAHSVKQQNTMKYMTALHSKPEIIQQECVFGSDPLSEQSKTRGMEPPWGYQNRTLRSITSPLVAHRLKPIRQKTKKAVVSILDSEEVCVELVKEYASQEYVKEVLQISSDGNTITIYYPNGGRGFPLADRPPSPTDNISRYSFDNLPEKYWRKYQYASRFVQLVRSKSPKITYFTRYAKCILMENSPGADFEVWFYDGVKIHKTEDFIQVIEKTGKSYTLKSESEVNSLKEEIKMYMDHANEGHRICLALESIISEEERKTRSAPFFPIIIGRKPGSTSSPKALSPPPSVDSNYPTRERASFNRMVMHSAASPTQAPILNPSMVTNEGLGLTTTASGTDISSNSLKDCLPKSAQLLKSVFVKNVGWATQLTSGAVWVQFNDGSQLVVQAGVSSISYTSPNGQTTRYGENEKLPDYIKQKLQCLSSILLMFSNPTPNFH
Procedure, shortened: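 Radiometric readout: 33P-labelled peptide captured on streptavidin SPA beads after EDTA stop, imaged by Leadseeker. Reaction ran 60 min at room temperature in Hepes pH 8.0 buffer. It contained 1 μM ATP with 2 nM [γ-33P]ATP, 10 μM biotinylated peptide and PLK4 (h) at 19 μg/ml.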

U87MG = assay: Cellular proliferation assay (Alamar blue), U87MG; format: cell-based; conditions: U87MG cells, 72 hours with compound, 10% FCS; for IC50: Homo sapiens, U-87 MG, 72 h, read-out: pIC50 U87MG (converted)
Procedure: as §1, §2

AuroraB (h) = AuroraB (h) (Homo sapiens, UniProt Q96GD4); assay: Aurora-B human kinase assay (SPA); format: biochemical; conditions: for IC50: read-out: AuroraB pIC50 (converted)
AuroraB (h), sequence (Q96GD4 whole entry): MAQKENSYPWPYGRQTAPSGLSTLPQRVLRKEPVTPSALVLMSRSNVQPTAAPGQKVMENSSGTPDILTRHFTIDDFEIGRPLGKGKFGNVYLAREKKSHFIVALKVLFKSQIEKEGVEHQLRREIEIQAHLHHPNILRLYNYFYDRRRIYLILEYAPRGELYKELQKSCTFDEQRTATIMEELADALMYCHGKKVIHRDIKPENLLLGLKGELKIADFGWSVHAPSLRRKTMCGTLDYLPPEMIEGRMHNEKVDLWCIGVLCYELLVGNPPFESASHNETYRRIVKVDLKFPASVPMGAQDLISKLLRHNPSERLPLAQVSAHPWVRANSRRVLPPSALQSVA
Procedure, shortened: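 Scintillation proximity assay: AuroraB (h) at 0.5 μg/ml with 3 μM biotinylated peptide, 0.5 μM ATP and 2.2 nM [γ-33P]ATP in 60 mM Hepes pH 7.5, 3 mM MgCl2, 3 mM MnCl2, 2 mM DTT. 60 min at room temperature, EDTA stop, streptavidin PVT beads read on Leadseeker.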

CDK1/CyclinB (h) = CDK1/CyclinB (h) (Homo sapiens, UniProt P06493); assay: CDK1/CyclinB human kinase assay (FRET); format: biochemical; conditions: for IC50: read-out: CDK1 pIC50 (converted)
CDK1/CyclinB (h), sequence (P06493 whole entry): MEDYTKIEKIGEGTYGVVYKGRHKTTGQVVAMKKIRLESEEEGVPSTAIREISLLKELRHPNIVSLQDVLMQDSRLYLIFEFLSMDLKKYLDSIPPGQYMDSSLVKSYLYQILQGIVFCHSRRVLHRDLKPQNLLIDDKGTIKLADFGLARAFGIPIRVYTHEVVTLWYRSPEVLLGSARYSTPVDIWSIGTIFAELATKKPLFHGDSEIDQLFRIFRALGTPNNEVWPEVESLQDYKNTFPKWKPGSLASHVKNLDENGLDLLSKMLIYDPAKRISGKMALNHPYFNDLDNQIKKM
CDK1/CyclinB (h), sequence (P14635 whole entry partner): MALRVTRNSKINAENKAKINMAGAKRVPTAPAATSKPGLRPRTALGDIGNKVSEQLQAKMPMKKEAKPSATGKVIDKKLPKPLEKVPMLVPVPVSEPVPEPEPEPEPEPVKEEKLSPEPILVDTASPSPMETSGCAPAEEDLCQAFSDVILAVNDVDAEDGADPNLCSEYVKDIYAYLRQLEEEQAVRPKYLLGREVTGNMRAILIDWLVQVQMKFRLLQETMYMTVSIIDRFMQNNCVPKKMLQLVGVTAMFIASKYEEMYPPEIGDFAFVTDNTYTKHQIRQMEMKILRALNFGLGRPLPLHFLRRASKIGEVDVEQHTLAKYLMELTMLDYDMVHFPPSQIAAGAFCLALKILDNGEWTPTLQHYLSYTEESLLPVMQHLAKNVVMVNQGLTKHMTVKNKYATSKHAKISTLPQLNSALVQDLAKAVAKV
Procedure, shortened: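 Z'-LYTE FRET format: 0.2 μg/ml enzyme with 2 μM Ser/Thr peptide 12 and 10 μM ATP in 50 mM Hepes pH 7.5, 10 mM MgCl2, 1 mM EGTA, 0.01% Brij-35, 60 min at room temperature. Protease development 60 min; coumarin/fluorescein emission ratio (460/538 nm, excitation 390 nm) reports phosphorylation.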

PC-3 = assay: Cellular proliferation assay (Alamar blue), PC-3; format: cell-based; conditions: PC-3 cells, 72 hours with compound, 10% FCS; for IC50: Homo sapiens, PC-3, 72 h, read-out: pIC50 PC-3 (converted)
Procedure: as §1, §2

IC50 (A2780) [µM] | IC50 (GSK3β (h)) [µM] | IC50 (HCT-116) [µM] | IC50 (H1299) [µM] | IC50 (PLK4 (h)) [µM] | IC50 (U87MG) [µM] | IC50 (AuroraB (h)) [µM] | IC50 (CDK1/CyclinB (h)) [µM] | IC50 (PC-3) [µM] | Compound | IC50 (MDA/MB231) [µM] | pIC50 A2780 (A2780) | GSK3B pIC50 (GSK3β (h)) | pIC50 HCT-116 (HCT-116) | pIC50 H1299 (H1299) | pIC50 MDA/MB231 (MDA/MB231) | PLK4 pIC50 (PLK4 (h)) | pIC50 U87MG (U87MG) | AuroraB pIC50 (AuroraB (h)) | CDK1 pIC50 (CDK1/CyclinB (h)) | pIC50 PC-3 (PC-3)
> 10 | 1.62 | > 10 | > 10 | 2.57 | > 10 | > 10 | > 10 | > 10 | COc1ccc2cc1CN(C)CC(=O)N(C)CCCCNc1ncnc3c1/C(=C/N2)C(=O)N3 [Compound 153] | > 10 |  |  |  |  |  |  |  |  |  | 
> 10 | 0.12 | 1.91 | 2.82 | 0.537 | 1.66 | 0.24 | 2.19 | 9.12 | COc1ccc2cc1OCCCCC(=O)N(C)CCNc1ncnc3c1/C(=C/N2)C(=O)N3 [Compound 45] | > 10 |  |  |  |  |  |  |  |  |  | 
> 10 | 0.363 | > 10 | > 10 | 3.16 | > 10 | 2.34 | > 10 | > 10 | CN1CCCCNc2ncnc3c2/C(=C/Nc2cccc(c2)OCC1=O)C(=O)N3 [Compound 143] | > 10 |  |  |  |  |  |  |  |  |  | 
> 10 | 0.933 | > 10 | > 10 | 3.47 | > 10 | 2.88 | > 10 | > 10 | COc1ccc2cc1OCC(=O)N(C)CCCCNc1ncnc3c1/C(=C/N2)C(=O)N3 [Compound 151] | > 10 |  |  |  |  |  |  |  |  |  | 
> 10 | > 10 | > 10 | > 10 | > 10 | > 10 | > 10 | > 10 | > 10 | CN1CCNC(=O)CCCOc2cc(ccc2Cl)N/C=C2\C(=O)Nc3ncnc1c32 [Compound 55] | > 10 |  |  |  |  |  |  |  |  |  | 
> 10 | 9.77 | > 10 | > 10 | > 10 | > 10 | > 10 | > 10 | > 10 | COc1cc2cc(c1OC)CN(C)CC(=O)N(C)CCCNc1ncnc3c1/C(=C/N2)C(=O)N3 [Compound 125] | > 10 |  |  |  |  |  |  |  |  |  | 
> 10 | 0.302 | > 10 | > 10 | 5.01 | > 10 | > 10 | > 10 | > 10 | CN1CCNc2ncnc3c2/C(=C/Nc2cccc(c2)CN(C)CC(=O)N(C)CC1)C(=O)N3 [Compound 149] | > 10 |  |  |  |  |  |  |  |  |  | 
> 10 | > 10 | > 10 | > 10 | > 10 | > 10 | > 10 | > 10 | > 10 | CN1CCCCCCC(=O)NCCN(C)c2ncnc3c2/C(=C/Nc2cccc(c2)C1)C(=O)N3 [Compound 54] | > 10 |  |  |  |  |  |  |  |  |  | 
> 10 | 0.295 | 2.19 | > 10 | 1.7 | > 10 | 1.38 | 5.89 | > 10 | CN1CCNc2ncnc3c2/C(=C/Nc2cccc(c2)OCCCCC1=O)C(=O)N3 [Compound 42] | > 10 |  |  |  |  |  |  |  |  |  | 
> 10 | > 10 | 4.9 | 8.91 | 4.9 | 6.31 | 0.309 | > 10 | 8.13 | CN1CCCNc2ncnc3c2/C(=C/Nc2cc(cc(C(F)(F)F)c2)OCCCCC1=O)C(=O)N3 [Compound 130] | > 10 |  |  |  |  |  |  |  |  |  | 
> 10 | > 10 | > 10 | > 10 | 5.01 | > 10 | > 10 | > 10 | > 10 | COc1cc2cc(c1OC)CN(C)CC(=O)N(C)CCCCNc1ncnc3c1/C(=C/N2)C(=O)N3 [Compound 152] | > 10 |  |  |  |  |  |  |  |  |  | 

More lines, now with the values behind:

Compound | IC50 (A2780) [µM] | IC50 (GSK3β (h)) [µM] | IC50 (HCT-116) [µM] | IC50 (H1299) [µM] | IC50 (PLK4 (h)) [µM] | IC50 (U87MG) [µM] | IC50 (AuroraB (h)) [µM] | IC50 (CDK1/CyclinB (h)) [µM] | IC50 (PC-3) [µM] | IC50 (MDA/MB231) [µM] | pIC50 A2780 (A2780) | GSK3B pIC50 (GSK3β (h)) | pIC50 HCT-116 (HCT-116) | pIC50 H1299 (H1299) | pIC50 MDA/MB231 (MDA/MB231) | PLK4 pIC50 (PLK4 (h)) | pIC50 U87MG (U87MG) | AuroraB pIC50 (AuroraB (h)) | CDK1 pIC50 (CDK1/CyclinB (h)) | pIC50 PC-3 (PC-3)
CN1CCN(c2ccc3cc2OCCCC(=O)N(C)CCNc2ncnc4c2C(=CN3)C(=O)N4)CC1 (mixture of isomers) [Compound 137] |  |  |  |  |  |  |  |  |  |  | 5.61 | 6.405 | 6.04 | 5.73 | 5.31 | 7.3 | 5.94 | ~5 | 5.83 | <5
CN1CCNC(=O)CCCOc2cccc(c2)N/C=C2\C(=O)Nc3ncnc1c32 [Compound 40] | > 10 | 1.51 | > 10 | > 10 | 4.9 | > 10 | 8.32 | 7.08 | > 10 | > 10 |  |  |  |  |  |  |  |  |  | 
COc1ccc2cc1OCCCCCC(=O)N(C)CCNc1ncnc3c1/C(=C/N2)C(=O)N3 [Compound 37] | 7.59 | 0.0851 | 6.03 | 3.16 | 0.55 | 1.82 | 0.214 | 2.14 | 9.55 | > 10 |  |  |  |  |  |  |  |  |  | 
CN1CCCNc2ncnc3c2C(=CNc2cccc(c2)OCCCC1=O)C(=O)N3 (mixture of isomers) [Compound 35] |  |  |  |  |  |  |  |  |  |  | 5.17 | 7.4 | 5.85 | 5.62 | <5 | 7.01 | 5.50 | 6.88 | 6.56 | 5.31
CN1CCN(c2ccc3cc2OCCCCC(=O)N(C)CCCNc2ncnc4c2C(=CN3)C(=O)N4)CC1 (mixture of isomers) [Compound 136] |  |  |  |  |  |  |  |  |  |  | 5.89 | 7.23 | 6.44 | 5.67 | 5.55 | 7.19 | 6.54 | 5.55 | 5.88 | 5.39
CN1CCCCCC(=O)N(C)CCCNc2ncnc3c2C(=CNc2ccc(N4CCOCC4)c(c2)C1)C(=O)N3 (mixture of isomers) [Compound 139] |  |  |  |  |  |  |  |  |  |  | 5.08 | 5.87 | 5.51 | <5 | <5 | 6.64 | 5.35 | <5 | <5 | <5
CN1CCCNc2ncnc3c2C(=CNc2ccc(N4CCOCC4)c(c2)OCCCC1=O)C(=O)N3 (mixture of isomers) [Compound 124] |  |  |  |  |  |  |  |  |  |  | 5.94 | 7.33 | 6.21 | 6.89 | 5.37 | 7.34 | 6.16 | 6.13 | 7.53 | 6.02
